Experimental data published in PubChem BioAssay (NCI).
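Results reflect a 48-hour exposure of cells in 96-well plates to compound at five concentrations. TGI is the concentration that stops growth completely.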

Legend:
Assay in all cases: NCI tumour cell line growth inhibition, 48 h
[1] = system: HCT-116 colon
[2] = system: HS 578T breast
[3] = system: HT29 colon
[4] = system: K-562 leukemia
[5] = system: LOX IMVI melanoma
[6] = system: M14 melanoma
[7] = system: MDA-MB-231 breast
[8] = system: MDA-N
[9] = system: NCI-H460 lung
[10] = system: NCI/ADR-RES ovarian
[11] = system: OVCAR-4 ovarian
[12] = system: SF-539 CNS
[13] = system: SK-MEL-2 melanoma
[14] = system: SK-MEL-5 melanoma
[15] = system: SNB-75 CNS
[16] = system: SW-620 colon
[17] = system: T-47D breast
[18] = system: UO-31 renal
[19] = system: KM12 colon

Row | Compound | TGI [1] | TGI [2] | TGI [3] | TGI [4] | TGI [5] | TGI [6] | TGI [7] | TGI [8] | TGI [9] | TGI [10] | TGI [11] | TGI [12] | TGI [13] | TGI [14] | TGI [15] | TGI [16] | TGI [17] | TGI [18] | TGI [19]
1 | CP(C)(=S)P(C)(C)=S | > 100 µM | > 100 µM | > 100 µM | > 100 µM | > 100 µM | > 100 µM | > 100 µM | > 100 µM | > 100 µM | > 100 µM | > 100 µM | > 100 µM | > 100 µM | > 100 µM | > 100 µM | > 100 µM | > 100 µM | > 100 µM | 
2 | CCOC(=O)C1(Cc2ccccc2)Cc2ccccc2C1=O (configuration not stated) | > 100 µM | > 100 µM | 65.2 µM | > 100 µM | > 100 µM | 40.9 µM | > 100 µM | 44.6 µM | > 100 µM | 62.8 µM | > 100 µM | 96.2 µM | 30.7 µM | 28.8 µM | > 100 µM | > 100 µM | 88.3 µM | 57.3 µM | > 100 µM
3 | Cc1n[nH]c(=O)n1N1C(=O)c2ccccc2C1=O | > 100 µM | > 100 µM | > 100 µM | > 100 µM | > 100 µM | > 100 µM | > 100 µM | > 100 µM | > 100 µM | > 100 µM | > 100 µM | > 100 µM | > 100 µM | > 100 µM | > 100 µM | > 100 µM | > 100 µM | > 100 µM | > 100 µM
4 | CC(=O)OC1COC(Nn2c(=O)[nH]c3ccccc3c2=O)C(OC(C)=O)C1OC(C)=O (configuration not stated) | > 100 µM | > 100 µM | > 100 µM | > 100 µM | > 100 µM | > 100 µM | > 100 µM | > 100 µM | > 100 µM | > 100 µM |  | > 100 µM | > 100 µM | > 100 µM | > 100 µM | > 100 µM | > 100 µM | > 100 µM | > 100 µM
5 | Cc1ccc(C)c(NC(=O)C(Cc2c[nH]c3ccccc23)NC(=O)OCc2ccccc2)c1 (configuration not stated) | 98.6 µM | > 100 µM | 45.1 µM | 28.9 µM | > 100 µM | 34.7 µM | 47.4 µM | > 100 µM | 44 µM | 33 µM | 25 µM | 21.5 µM | 45.9 µM | 34.5 µM | 27.9 µM | 35.5 µM | 38 µM | 34.9 µM | 69.7 µM
6 | Cc1c2cccc-2c(OCCO)cc2c1[nH]c1ccccc12 | > 23.2 µM | > 49.6 µM | 14.2 µM | > 24.3 µM | 4.97 µM | 4.36 µM | 6.56 µM | 7.9 µM | 18.3 µM | > 23.4 µM | 13.5 µM | 3.5 µM | 12 µM | 2.95 µM | 3.95 µM | > 74.7 µM | 24.2 µM | 3.09 µM | 7.04 µM
7 | CCCCOC(=O)C1CN2C(=NC1(C(F)(F)F)C(F)(F)F)Sc1ccccc12 (configuration not stated) | > 100 µM | > 100 µM | > 100 µM | > 100 µM | > 100 µM | > 100 µM | > 100 µM | > 100 µM | > 100 µM | > 100 µM | > 100 µM | > 100 µM | > 100 µM | 54.2 µM | > 100 µM | > 100 µM | > 100 µM | > 100 µM | > 100 µM
8 | O=C(O)C(F)(OC(F)(F)C(F)(OC(F)(F)C(F)(F)C(F)(F)F)C(F)(F)F)C(F)(F)F (configuration not stated) | > 100 µM | > 100 µM | > 100 µM | > 100 µM | > 100 µM | > 100 µM | > 100 µM | > 100 µM | > 100 µM | > 100 µM | > 100 µM | > 100 µM | > 100 µM | > 100 µM | > 100 µM | > 100 µM | > 100 µM | > 100 µM | > 100 µM
9 | CC1Cc2cc(O)ccc2C2[C@@H]1C1CC[C@H](O)[C@@]1(C)C[C@@H]2O[N+](=O)[O-] (some centres not stated) | 31.1 µM | 22.3 µM | 31.1 µM | 49.4 µM | 32.7 µM | 64.1 µM | 85.8 µM | 6.07 µM | > 95.7 µM | 38.9 µM | > 100 µM | 18.9 µM | 55.3 µM | 17.8 µM | > 100 µM | > 100 µM | > 84.3 µM | 63.7 µM | > 79.1 µM
10 | CCOP(C)(=O)C(Nc1ccc(F)cc1)c1ccc(F)cc1 (configuration not stated) | > 100 µM | > 100 µM | > 100 µM | > 100 µM | > 100 µM | > 100 µM | > 100 µM | > 100 µM | > 100 µM | > 100 µM | > 100 µM | > 100 µM | > 100 µM | > 100 µM |  | > 100 µM | > 100 µM | > 100 µM | > 100 µM
11 | O=C1OC(c2ccccc2)N/C1=C\c1ccc2c(c1)OCO2 (configuration not stated) | > 100 µM | > 100 µM | > 100 µM | > 100 µM | > 100 µM | > 100 µM | > 100 µM | > 100 µM | > 100 µM | > 100 µM | > 88 µM | > 31.6 µM | > 100 µM | > 100 µM | > 100 µM | > 100 µM | > 100 µM | > 100 µM | > 95.5 µM
12 | C=C(C(=O)O)[C@@H]1C[C@@H]2O[C@H]1CC(C)=CCC/C(C)=C/CC[C@@]2(C)O | > 100 µM | > 100 µM |  | > 100 µM | > 100 µM | > 100 µM | > 100 µM | > 100 µM | > 100 µM | > 100 µM | > 100 µM | > 100 µM | > 100 µM | > 100 µM | > 100 µM | > 100 µM | > 100 µM | > 100 µM | > 100 µM
13 | Cc1cc(-c2nc3cc(F)c(F)cc3s2)ccc1N | > 100 µM | > 100 µM | > 100 µM | > 100 µM | > 100 µM | > 100 µM | > 100 µM | > 100 µM | > 100 µM | > 100 µM | > 100 µM |  | > 100 µM | > 100 µM | > 92.9 µM | > 100 µM | > 100 µM | > 100 µM | > 100 µM
